System: PDE4
Assay: PDE4 enzyme inhibition assay
Format: biochemical, human
Details: 200 μM, 25° C., 1% DMSO vehicle
Excerpt: In this example, a racemic mixture of monochloroflosequinan and the sulfone derivative of monochloroflosequinan were independently subjected to biochemical enzyme assays to determine their respective percent inhibition of a variety of phosphodiesterases (PDE1-PDE6). The methods used have been adapted from those described in the scientific literature, see Hidaka and Asano “Human blood platelet 3′:5′ cyclic nucleotide phosphodiesterase. Isolation of low-Km and high Km phosphodiesterase.” Biochem. Biophys. […] Unhydrolyzed cAMP was bound to AGI-X2 resin, and the remaining [^3H]adenosine in the aqueous phase was quantitated by scintillation counting. • PDE2: PDE2 partially purified from human platelets was used. […] Unhydrolyzed cAMP was bound to AGI-X2 resin, and the remaining [^3H]adenosine in the aqueous phase was quantitated by scintillation counting. • PDE3: PDE3 partially purified from human platelets was used. […] Unhydrolyzed cAMP was bound to AGI-X2 resin, and the remaining [^3H]adenosine in the aqueous phase was quantitated by scintillation counting. • PDE4: PDE4 partially purified from human U-937 pronocytic cells was used. […] Unhydrolyzed cAMP was bound to AGI-X2 resin, and the remaining [^3H]adenosine in the aqueous phase was quantitated by scintillation counting. • PDE5: PDE5 partially purified from human platelets was used. […]

inhibition of PDE4: greater than 50%
Structure (SMILES): Cn1cc([S@@+]([O-])CCl)c(=O)c2ccc(F)cc21 (single isomer, unassigned) [(−)-enantiomer of monochloroflosequinan]
